Test results published in patent US20210386757A1, “Methods of Treating Menopausal Symptoms Using Low Dose Progesterone” (priority 2018, published 2021).

Experiments:
[1] = tested on: symptoms of the menopause transition state; assay: Trial of progesterone for treating symptoms of the menopause transition state (Example 1); format: in vivo, women; details: greater than 100 patients, low dose e.g. 25 mg twice a day
Procedure: It is apparent based on initial observations that supplementing with a low dose progesterone alleviates symptoms in women transitioning into menopause. The question then becomes, if a person is experiencing symptoms of estrogen dominance does failing to treat estrogen dominance result in a greater risk of breast cancer, uterine cancer, and cardiovascular disease. Supplementing with progesterone, e.g., at 25 mg twice a day can improve many symptoms associated with menopause transition. […] Micronized progesterone (25 mg) Dosing regimens of interest: One tablet bid (twice a day); Two tablets qhs (each night at bedtime); One tablet qam (every morning), two tablets qhs (each night at bedtime).

[2] = tested on: symptoms associated with menopause transition; assay: Observational study of low dose oral micronized progesterone in menopause transition, Menopause Rating Scale (MRS); format: in vivo, women
Description: Women between the ages of 40 to 55 years of age who were experiencing symptoms consistent with menopause transition were offered a trial of a low dose progesterone to alleviate their symptoms. The primary complaint for inclusion in the study was alterations in mood defined as depressive mood, irritability, or anxiety on the Menopause Rating Scale (MRS). A score of 2-4 on these mood changes was required to be included in the study. One additional symptom (sleep problems, hot flushes, physical and mental exhaustion) on the MRS was required, with a minimum score of 1, to be included. Patients with a history of breast cancer, actively trying to conceive, or in menopause were excluded from the study. Menopause was defined as no menses for greater than one year or surgical removal of the ovaries. Patients were consented for a trial of oral micronized progesterone at 25 mg twice a day. Response to treatment was evaluated in the office after 3 months of treatment. Data was collected over a one-year time period, September 2018-September 2019. The menopause transition time, referred to as perimenopause, includes both the early and late perimenopausal group. Patient selection was classified according to STRAW (Stages of Reproductive Aging Workshop) classification. Late perimenopause was defined as menstruation in the previous/last 2-12 months, but not in the previous/last 2 months. Early perimenopause was defined as increasing irregularity of menses without skipping periods (7 days difference) from the beginning of a given cycle to the next. The Menopause Rating Scale was utilized to quantify qualitative symptoms associated with the menopause transition. Given treatment differences in the symptoms that impact person transitioning through menopause, attention was focused on 6 components of the MRS; hot flushes, sleep problems, depressive mood, irritability, anxiety, and physical/mental exhaustion. The scoring scheme increases point by point with increasing severity of subjectively perceived symptoms in each of those 6 items (severity 0 [no complaints] . . . 4 scoring points [very severe symptoms]). The respondent rated their personal symptoms on a 0 to 4 scale for each item. The MRS was chosen as a result of being a reliable measure of quality of life in aging women of various regions over time.

CC(=O)[C@H]1CC[C@H]2[C@@H]3CCC4=CC(=O)CC[C@]4(C)[C@H]3CC[C@]12C [micronized progesterone, progesterone]
subsequent diagnosis of breast cancer, uterine cancer, or a cardiovascular event [1]: not one patient was subsequently diagnosed with breast cancer, uterine cancer, or a cardiovascular event | response of patients who altered the dosing regimen ([2]; once a day or two tablets (50 mg) at night, 14 patients excluded from the study): noted benefits and chose to continue the medication | patients with at least a one-point improvement in MRS symptom score, physical and mental exhaustion ([2]; oral 25 mg twice a day, 3 months, 12 of 19 patients who noted physical and mental exhaustion): 63% | patients with at least a one-point improvement in MRS symptom score, sleep problems ([2]; oral 25 mg twice a day, 3 months, 27 of 32 patients who noted sleep problems): 84% | patients with at least a one-point improvement in MRS symptom score, hot flushes ([2]; oral 25 mg twice a day, 3 months, 44 of 48 patients who noted hot flushes): 92% | patients who did not report side effects to the medication ([2]; oral 25 mg twice a day, 3 months, of 55 patients evaluated): 54 patients | patients reporting MRS symptom score of 0 ([2]; oral 25 mg twice a day, at 3 months, 44 of 55 patients): 80% | discontinuation because of a diagnosis of breast cancer, thromboembolic event, or abnormal uterine bleeding ([2]; oral 25 mg twice a day, during the study period): No patient discontinued the medication | patients with at least a two-point improvement in MRS symptom score related to mood changes ([2]; oral 25 mg twice a day, evaluated at 3 months, 52 of 55 patients): 94.5% | discontinuation because of an adverse effect ([2]; oral 25 mg twice a day, prior to the 3 month follow up): One patient discontinued the medication prior to the 3 month follow up secondary to worsening headaches
